Experiment: DPPH radical scavenging antioxidant test
Type: biochemical
Conditions: 517 nm; for Inhibition (radical scavenging inhibition): compound 3 μM in ethanol, 0.2 mL DPPH (0.75 mM), 30 minutes in the dark
Protocol: The antioxidant activity of 6′-(2-bromophenyl)-2′-ethoxy-3,4′-bipyridine-3′-carbonitrile was investigated by 2,2-diphenyl-1-picrylhydrazyl (DPPH) in vitro tests that employ vitamin C as the positive control.
The antioxidant properties of the 6′-(2-bromophenyl)-2′-ethoxy-3,4′-bipyridine-3′-carbonitrile compound were studied by adding 0.2 mL DPPH (0.75 mM)) to 6′-(2-bromophenyl)-2′-ethoxy-3,4′-bipyridine-3′-carbonitrile (3 μM) (4) in ethanol. After 30 minutes of incubation in the dark, the absorbance was read against a blank at 517 nm. Ascorbic acid (vitamin C) was used as standard antioxidants (positive control). A blank sample was prepared by 0.2 mL of DPPH in 3 mL ethanol. A negative control sample was run using ethanol instead of the sample. The radical scavenging inhibition was calculated using the following equation: […]
The antioxidant activity for the synthesized compound is listed in Table 1, using Vitamin C as a reference.

CCOc1nc(-c2ccccc2Br)cc(-c2cccnc2)c1C#N [Product 4, 6′-(2-bromophenyl)-2′-ethoxy-3,4′-bipyridine-3′-carbonitrile]
antioxidant potential to vanish the DPPH radical colors (in words) (DPPH in vitro test, vitamin C as positive control): high potential as an antioxidant compared to vitamin C
Inhibition (radical scavenging inhibition): 50%

O=C1O[C@H]([C@@H](O)CO)C(O)=C1O [vit c, Ascorbic acid, reference compound]
Inhibition (radical scavenging inhibition): 74%
